Results on three compounds are retold here after patent US12377087B2, “Compounds for the treatment of cancer” (UNIVERSITY OF LOUISVILLE RESEARCH FOUNDATION, INC., priority 2015, dated 2025).

Data set [1] deals with H460 cells. The experiment in a line: F2,6BP measurements in H460 cells. In kind it is cell-based, human. The conditions noted are these: H460, indicated concentrations of MPN-2. On the procedure:
F2,6BP measurements: Cells or tissues were prepared as previously described and F2,6BP content measured using a coupled enzyme reaction following the method of Van Schaftingen et at (Van Schaftingen E et al. A kinetic study of pyrophosphate: fructose-6-phosphate phosphotransferase from potato tubers. Application to a microassay of fructose 2,6-bisphosphate. Eur J Biochem 1982 December; 129(1): 191-5) and normalized to total cellular protein measured by the bicinchoninic acid assay (BCA, Thermo Scientific). […] In order to measure F2,6BP, cells were harvested, washed with PBS, lysed in NaOH/Tris acetate by heating at 80° C. and lysates neutralized to pH 7.2. F2,6BP content was measured using a coupled enzyme reaction following the method of Van Schaftingen et al (Eur J Biochem. 1982; 129(1): 191-195). The F2,6BP concentration was normalized to total cellular protein measured by the bicinchoninic acid assay (BCA, Thermo Scientific) All data are expressed as the mean±SD of three experiments. Statistical significance was assessed by the two-sample t test (independent variable).

The test system of data set [2] is H460 cells. The data set can be described thus: Glycolysis assay (3H2O from 5-[3H]glucose) in H460 cells. It counts as cell-based, human. The settings on record: H460, indicated concentrations of MPN-2, 48 hours. On the procedure: Cells growing in 6-well plates were incubated in 500 μl of complete medium containing 1 μCi of 5-[^3H]glucose per well for 60 min in 5% CO2 at 37° C. Media was collected, ^3H2O formed via glycolysis from the 5-[^3H]glucose measured and counts normalized as previously described. For example, the medium was then collected and centrifuged to pellet any suspended cells. To separate the ^3H2O formed via glycolysis from the 5-[^3H]glucose added to the medium, an evaporation technique in a sealed system was utilized. Briefly, 150 μl aliquots of medium were added to open tubes that were placed upright inside scintillation vials containing 1 ml of H2O. The scintillation vials were sealed, and the ^3H2O produced by glycolysis through enolase and released to the medium was allowed to equilibrate with the H2O in the outer vial for 48 h at 37° C. The amounts of ^3H2O that had diffused into the surrounding H2O was measured on a Tri-Carb 2910 liquid scintillation analyzer (Perkin Elmer) and compared with ^3H2O and 5-[^3H]glucose standards. Protein concentration was determined using the BCA assay and counts were normalized to protein concentration. All data are expressed as the mean±SD of three experiments. Statistical significance was assessed by the two-sample t test (independent variable).

The test system of data set [3] is H460 cells. The experiment in a line: ATP measurements in H460 cells. In kind it is cell-based, human. The settings on record: H460, indicated concentrations of MPN-2, 48 hours. As to the method:
Cells were lysed and intracellular ATP determined as described previously. For example, cells were washed (while still adherent) with cold PBS 1×, lysed with Passive Lysis Buffer (1×; Molecular Probes, Invitrogen) added directly to the plates, and immediately harvested by scraping. The lysates were flash frozen (to −80° C.) and thawed (to 37° C.) once to accomplish complete lysis and then centrifuged (at 4° C.) for 30 seconds to clear the lysates. Intracellular ATP levels were determined using a bioluminescence assay (Molecular Probes), utilizing recombinant firefly luciferase and its substrate, D-luciferin. The luminescence was read in a TD-20/20 luminometer (Turner Designs) at 560 nm. The ATP values were calculated using an ATP standard curve. The protein concentrations of the lysates were estimated using the BCA assay (Pierce Biotechnology) and ATP was expressed as pmol/μg protein. All data are expressed as the mean±SD of three experiments. Statistical significance was assessed by the two-sample t test (independent variable).

Data set [4] concerns H460 cells. The experiment in a line: proliferation / viable cell count (trypan blue) of H460 cells. It counts as cell-based, human. The settings on record: for proliferation of H460 NSCLC cells, viable cells by Trypan blue exclusion: increasing concentrations, counts at 48 hours shown. As to the method: Cell Viability: Cells were incubated in 20% trypan blue (Sigma) for 5 minutes. Cells excluding trypan blue were counted using a standard hemocytometer (Hausser Scientific) to determine total numbers of viable cells. Data are expressed as mean±SD of three experiments. Proliferation Assays: H460 non-small cell lung cancer cells were plated in 24 well plates and exposed to increasing concentrations of the indicated inhibitors of Formula IV (FBR1-02 corresponds to [drawing 47] DMSO was used as vehicle. After 24, 48 and 72 hours of exposure, cells were detached and viable cells were counted by Trypan blue exclusion (representative counts at 48 hours shown).

A further data set relates to SK-BR-3. The experiment in a line: proliferation of SK-BR-3 cells. It counts as cell-based. The conditions noted are these: SK-BR-3, 24-72 hours (72 hours shown). On the procedure:
Cell Viability: Cells were incubated in 20% trypan blue (Sigma) for 5 minutes. Cells excluding trypan blue were counted using a standard hemocytometer (Hausser Scientific) to determine total numbers of viable cells. Data are expressed as mean±SD of three experiments.

The nature of data set [5]: oral and intravenous pharmacokinetics of MPN-2. It counts as in vivo. The conditions noted are these: CD-1 mice (N=3).
The next data set deals with Lewis lung carcinomas. The experiment in a line: Lewis lung carcinoma tumor growth in mice. In kind it is in vivo, C57BL/6 mice. The settings on record: C57BL/6 mice, intraperitoneal injection 10 mg/kg daily, eleven days.

As to “5-[(8-methoxy-2-methylquinolin-1-ium-4-yl)amino]pentyl nitrate [MPN-2]”, the “F2,6BP production” value in the data set with H460 cells [1] is listed as “significantly inhibited”. Also, the intracellular glycolysis entry in the data set with H460 cells [2] is “significantly decreased”. Further, the ATP production entry in the data set on H460 cells [3] was “significantly decreased”. The proliferation result in the data set with H460 cells [4] (H460, 24-72 hours (72 hours shown)) was “decreased proliferation”; in the data set with SK-BR-3, “decreased proliferation”. In addition, the “proliferation, viable cells” value with H460 cells [4] (H460 NSCLC, 48 hours and 72 hours) was “decreased the proliferation”. Moreover, the oral bioavailability entry in data set [5] is reported as “high oral bioavailability”. The “tumor growth of Lewis lung carcinomas” value with Lewis lung carcinomas was “suppressed the growth”.

For the compound `O=[N+]([O-])OCCCCCNc1ccnc2ccccc12` [FBR1-02], the “proliferation of H460 NSCLC cells, viable cells by Trypan blue exclusion” value in the data set on H460 cells [4] is “decreased proliferation of cancer cells”.

`COc1cccc2c(NCCCCCNS(C)(=O)=O)ccnc12` [FBR1-09]: the “proliferation of H460 NSCLC cells, viable cells by Trypan blue exclusion” value with H460 cells [4] is on record as “decreased proliferation of cancer cells”.
